Measurements taken from ChEMBL document CHEMBL1255519, “The synthesis of paleic acid, an antimicrobial agent effective against Mannheimia and Pasteurella, and its structurally related derivatives” (2010).
Converted amounts (≈) assume the structure as drawn.

What was measured:
Assay type in all cases: functional
[1] = tested on: Pasteurella multocida; assay: Antimicrobial activity against Pasteurella multocida M-17 after 17 hrs by serial agar dilution method; details: M-17, 17 h
[2] = tested on: Actinobacillus pleuropneumoniae; assay: Antimicrobial activity against Actinobacillus pleuropneumoniae NB001 after 17 hrs by serial agar dilution method
[3] = tested on: Mannheimia haemolytica; assay: Antimicrobial activity against Mannheimia haemolytica N811 after 17 hrs by serial agar dilution method
[4] = tested on: Pasteurella multocida; assay: Antimicrobial activity against Pasteurella multocida TS-8 after 17 hrs by serial agar dilution method
[5] = tested on: Pasteurella multocida; assay: Antimicrobial activity against Pasteurella multocida isolate 6 after 17 hrs by serial agar dilution method
[6] = tested on: Mannheimia haemolytica; assay: Antimicrobial activity against Mannheimia haemolytica N791 after 17 hrs by serial agar dilution method; details: N791, 17 h
[7] = tested on: Mannheimia haemolytica; assay: Antimicrobial activity against Mannheimia haemolytica S801 after 17 hrs by serial agar dilution method
[8] = tested on: Histophilus somni; assay: Antimicrobial activity against Histophilus somni 23N2359 after 17 hrs by serial agar dilution method; details: 23N2359, 17 h
[9] = tested on: Pasteurella multocida; assay: Antimicrobial activity against Pasteurella multocida Kobe after 17 hrs by serial agar dilution method
[10] = Actinobacillus pleuropneumoniae, NB001, 17 h, read-out: MIC
[11] = Mannheimia haemolytica, N811, 17 h, read-out: MIC
[12] = Pasteurella multocida, TS-8, 17 h, read-out: MIC
[13] = Pasteurella multocida, isolate 6, 17 h, read-out: MIC
[14] = Mannheimia haemolytica, S801, 17 h, read-out: MIC

MIC [1] | MIC [2, 10] | MIC [4, 12] | MIC [5, 13] | MIC [8] | MIC [9] | MIC [2] | MIC [4] | MIC [5] | SMILES | MIC [3, 11] | MIC [6] | MIC [7, 14] | MIC [3] | MIC [7]
> 50 µg/mL | > 50 µg/mL | 50 µg/mL (≈ 168 µM) | > 50 µg/mL | > 50 µg/mL | > 50 µg/mL | – | – | – | CC[C@@H](O)CCCCC/C=C\CCCCCCCC(N)=O | 12.5 µg/mL (≈ 42 µM) | 25 µg/mL (≈ 84 µM) | 50 µg/mL (≈ 168 µM) | – | –
> 50 µg/mL | 12.5 µg/mL (≈ 41.9 µM) | 6.25 µg/mL (≈ 20.9 µM) | 50 µg/mL (≈ 168 µM) | > 50 µg/mL | > 50 µg/mL | – | – | – | CC[C@H](O)CCCCC/C=C\CCCCCCCC(=O)O | 0.78 µg/mL (≈ 2.61 µM) | 0.78 µg/mL (≈ 2.61 µM) | 0.39 µg/mL (≈ 1.31 µM) | – | –
> 50 µg/mL | 6.25 µg/mL (≈ 21.1 µM) | 50 µg/mL (≈ 169 µM) | 50 µg/mL (≈ 169 µM) | > 50 µg/mL | > 50 µg/mL | – | – | – | CCC(=O)CCCCC/C=C\CCCCCCCC(=O)O | 6.25 µg/mL (≈ 21.1 µM) | 3.13 µg/mL (≈ 10.6 µM) | 6.25 µg/mL (≈ 21.1 µM) | – | –
> 50 µg/mL | > 100 µg/mL | 25 µg/mL (≈ 73.4 µM) | > 50 µg/mL | > 50 µg/mL | 50 µg/mL (≈ 147 µM) | – | – | – | CCC1(CCCCC/C=C\CCCCCCCC(=O)O)OCCO1 | 25 µg/mL (≈ 73.4 µM) | 25 µg/mL (≈ 73.4 µM) | 25 µg/mL (≈ 73.4 µM) | – | –
> 50 µg/mL | 6.25 µg/mL (≈ 20.1 µM) | 25 µg/mL (≈ 80.3 µM) | 3.13 µg/mL (≈ 10 µM) | > 50 µg/mL | > 50 µg/mL | – | – | – | CC/C(CCCCC/C=C\CCCCCCCC(=O)O)=N/O | 1.56 µg/mL (≈ 5.01 µM) | 1.56 µg/mL (≈ 5.01 µM) | 1.56 µg/mL (≈ 5.01 µM) | – | –
> 50 µg/mL | 50 µg/mL (≈ 159 µM) | 50 µg/mL (≈ 159 µM) | 12.5 µg/mL (≈ 39.9 µM) | > 50 µg/mL | > 50 µg/mL | – | – | – | CC[C@@H](O)CCCCC/C=C\CCCCCCCC(=O)NO | 25 µg/mL (≈ 79.7 µM) | 25 µg/mL (≈ 79.7 µM) | 50 µg/mL (≈ 159 µM) | – | –
> 50 µg/mL | > 50 µg/mL | 25 µg/mL (≈ 66.6 µM) | 50 µg/mL (≈ 133 µM) | > 50 µg/mL | > 50 µg/mL | – | – | – | CC[C@@H](O)CCCCC/C=C\CCCCCCCC(=O)NS(C)(=O)=O | 50 µg/mL (≈ 133 µM) | 50 µg/mL (≈ 133 µM) | 25 µg/mL (≈ 66.6 µM) | – | –
50 µg/mL (≈ 155 µM) | 50 µg/mL (≈ 155 µM) | 50 µg/mL (≈ 155 µM) | 50 µg/mL (≈ 155 µM) | 50 µg/mL (≈ 155 µM) | 50 µg/mL (≈ 155 µM) | – | – | – | CC[C@@H](O)CCCCC/C=C\CCCCCCCc1nnn[nH]1 | 50 µg/mL (≈ 155 µM) | 50 µg/mL (≈ 155 µM) | 50 µg/mL (≈ 155 µM) | – | –
> 50 µg/mL | 6.25 µg/mL (≈ 20.9 µM) | 3.13 µg/mL (≈ 10.5 µM) | 6.25 µg/mL (≈ 20.9 µM) | > 50 µg/mL | > 50 µg/mL | – | – | – | CC[C@@H](O)CCCCC/C=C\CCCCCCCC(=O)O (stereo in doubt; 1) [PALEIC ACID] | 1.56 µg/mL (≈ 5.23 µM) | 0.78 µg/mL (≈ 2.61 µM) | 1.56 µg/mL (≈ 5.23 µM) | – | –
– | – | – | – | – | – | 6.25 µg/mL (≈ 20.9 µM) | 6.25 µg/mL (≈ 20.9 µM) | 12.5 µg/mL (≈ 41.9 µM) | CC[C@@H](O)CCCCC/C=C\CCCCCCCC(=O)O (stereo in doubt; 2) [PALEIC ACID] | – | – | – | 0.78 µg/mL (≈ 2.61 µM) | 0.78 µg/mL (≈ 2.61 µM)
